# Measured values: patent publication US20190169140A1, “IDO1 INHIBITOR AND PREPARATION METHOD AND APPLICATION THEREOF” (SHANDONG LUYE PHARMACEUTICAL CO., LTD., priority 2016, published 2019)
# Where two headings read alike, the source gives them in different places. Marks after values point to notes of the source that are not given here.
# Legend:
# [1] = target: T1, recombinant human IDO1 enzyme (Homo sapiens, UniProt P14902); assay: Test of hIDO1 for enzymatic activity in vitro (NFK Green fluorescence); type: biochemical
# T1 construct: purchased NTRC (Netherlands Translational Research Center) NTRC-hIDO-10K
# Procedure: 1. Test of hIDO1 for Enzymatic Activity In Vitro
# 1.1 Purpose of Experiment:
# Changes in production of NFK, an IDO1 enzymatic metabolite were detected with NFK Green™ fluorescent molecules. With an IC50 value of a compound as an index, an inhibitory effect of the compound on recombinant human IDO1 enzyme was evaluated.
# The compound was diluted with dimethyl sulfoxide (DMSO) to 1 mM, with 10 gradients, each 3-fold dilution, in duplicate. 48 μL of 50 mM phosphate buffer, having pH of 6.5, was transferred by the Bravo automatic liquid processing platform to the compound plate. Then 2 μL of an already diluted compound/DMSO solution was added. After even mixing, 10 μL of the resultant mixture was transferred to the enzymatic reaction plate.
# IDO1 enzyme was diluted to 20 nM in a reaction buffer (50 mM phosphate buffer with pH of 6.5, 0.1% of Tween-20, 2% of glycerol, 20 mM ascorbic acid, 20 μg/ml catalase, and 20 μM methylene blue), 20 μL of the diluted IDO1 enzyme was transferred to the enzymatic reaction plate, and incubated at 23° C. for 30 minutes. 10 μL of 400 μM L-type tryptophan substrate was added to start reaction. The incubation lasted at 23° C. for 90 minutes. 10 μL of NFK Green™ fluorescent dye was added. The resultant mixture was sealed with the plate sealing film. After incubation at 37° C. for 4 hours, an Envision multi-functional plate reader was used for reading (Ex 400 nm/Em 510 nm).
# A reference well to which the IDO1 enzyme was added but no compound was added was set to have an inhibition rate of 0%, and a reference well to which no IDO1 enzyme was added was set to have an inhibition rate of 100%. Data was analyzed with XLFit 5 to calculate an IC50 value of the compound.
# [2] = Measurement of thermodynamic solubility; type: physicochemical; details: aqueous buffer, thermodynamic from solid, room temperature
# Procedure: II. Measurement of Thermodynamic Solubility
# 1. Solutions for Thermodynamic Solubility
# Buffer A (pH 2.0): 50 mM phosphate buffer, with a pH value of 2.0.
# Buffer B (pH 7.4): 50 mM phosphate buffer, with a pH value of 7.4.
# 50% acetonitrile solution and 50% buffer (A, B) were mixed together to obtain a diluent. 10 mM (20 μL/compound) stock solution was added to acetonitrile (480 μL/compound), and mixed with the buffer (A, B) (500 μL/compound) to obtain 200 μM UV detection standard solution. The 200 μM UV detection standard solution was diluted with the diluent 10 times or 200 times the amount of the standard solution, so as to acquire 20 μM or 1 μM UV standard solution. 1, 20, and 200 μM UV standard solutions were taken as standard samples for thermodynamic solubility test.
# No less than 2 mg of a sample powder was weighed and placed in a Whatman miniuniprep vial. If it was required to test the thermodynamic solubility of the sample in multiple buffers (A, B), an independent vial was demanded for each test. 450 μL of the buffer (A, B) was respectively added to each Whatman miniuniprep vial. After the buffer was added, a piston cover of the Whatman miniuniprep functioning to filter was put on and pressed above a liquid surface, such that a filter screen was in contact with the buffer (A, B) during the shaking. The solubility sample was shaken in a vortex manner for 1 minute, and phenomenon of the solution was recorded. The sample was shaken at 600 rpm at a room temperature (approximately 22˜25° C.) for 24 hours. The filtering cover of Whatman Miniunipreps was pressed to a bottom, to obtain a filtrate of the sample solubility solution. All sample vials should be recorded for insoluble substances before and after the filtration and leakage phenomenon thereof. The buffer (A, B) was 50-fold diluted to obtain a sample diluent.
# 3 UV standard solutions, from low concentration to high concentration, were injected into HPLC, and then the diluent and the supernatant of the compound to be tested were injected. The sample to be tested was in duplicate. Integration was carried out for UV chromatographic peaks. A standard curve was established by simulation and the thermodynamic solubility of the sample was calculated. HPLC conditions were as follows.
# mice colon cancer CT26 = assay: Efficacy against mice colon cancer CT26 transplanted tumor; type: in vivo, BALB/c mice; details: for Inhibitory Rate for Tumor Weight / Tumor Weight / mean tumor weight compared with the control group: end of experiment; for tumor inhibitory effect compared at the same dose: same dose of 100 mg/kg
# Procedure: Research on Efficacy of Anti-Mice Colon Cancer Ct26
# In the present research, colon cancer CT26 models were employed to compare differences between compound 231 and compounds 360 and 117 in antitumor effects.
# Therefore, the dose of the two compounds, compound 360 and compound 117, in the present experiment was set as 100 mg/kg. In order to observe dose-efficacy relevance of 231, a dose of the compound 231 was set as 25, 50, 100, 200 mg/kg in the present experiment. All drugs were administered by gavage, twice a day.
# According to document reports, mice colon cancer CT26 is a commonly used tumor model for evaluating immunological drugs. […] Therefore, CT26-bearng BALB/c models were chosen in the present experiment for research on efficacy and tissue distribution.
# In a super-clean bench, each mouse was subcutaneously inoculated with 0.2 mL of the tumor cell suspension at shoulder, with an inoculation amount of 1×10^5 per mouse. When a tumor block grew to be 500-1000 mm^3, the tumor block was taken out, cut into pieces with scissors, and subcutaneously inoculated at shoulder at the mouse's back using a subcutaneous embedding implantation puncture needle (with a diameter of 1.2 mm).
# The day of tumor inoculation was defined as Day 0, and the inoculated animals were grouped randomly on the day of inoculation. One day after the inoculation (Day 1), the administration was started. The experiment had 7 groups in total, with 12 animals in each group. See details in Table 12 for information on animal grouping and administration.
# It was an experimental cycle when the tumor in the control group grew to have a volume of 3000 mm^3. The following indexes were observed during the experiment.
# (1) As for tumor growth curve, when the tumor was measurable, a maximum diameter (a) and a minimum diameter (b) of the tumor were measured once every other day, to calculate the tumor volume (a calculation formula is V=½×a×b^2), and anti-tumor effect of the tested drug was observed dynamically.
# (4) As for tumor inhibitory rate, when the experiment was ended, the mice were killed by cervical dislocation, the tumor blocks were taken out and weighed, to calculate the tumor inhibitory rate, where tumor inhibitory rate=(mean tumor weight of the control group-mean tumor weight of the treatment group)/mean tumor weight of the control group×100%), and the tumor blocks were photographed with a digital camera for recording.
# [3] = 50 mM phosphate buffer pH 2.0, 24 hours, read-out: thermodynamic solubility (pH: 2.0)
# [4] = 50 mM phosphate buffer pH 7.4, 24 hours, read-out: thermodynamic solubility (pH: 7.4)
# T1 sequence (P14902 whole entry): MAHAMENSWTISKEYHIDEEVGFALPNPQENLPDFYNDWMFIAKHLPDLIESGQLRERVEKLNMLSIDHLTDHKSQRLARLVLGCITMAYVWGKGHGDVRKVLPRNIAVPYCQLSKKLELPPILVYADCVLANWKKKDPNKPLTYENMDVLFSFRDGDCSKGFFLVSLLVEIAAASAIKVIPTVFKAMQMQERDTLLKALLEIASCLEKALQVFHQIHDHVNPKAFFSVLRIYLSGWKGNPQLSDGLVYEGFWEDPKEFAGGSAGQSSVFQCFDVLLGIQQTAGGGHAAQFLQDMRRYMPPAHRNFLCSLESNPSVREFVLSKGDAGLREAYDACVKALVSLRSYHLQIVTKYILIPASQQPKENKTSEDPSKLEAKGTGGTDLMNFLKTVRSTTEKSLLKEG
smiles,measurement,setting,value
NS(=O)(=O)NCCOc1nonc1/C(=N/O)Nc1ccc(F)c(Br)c1 [Compound 0015],IC50,[1],115 nM
same,solubility thermodynamic at 24 h,[2]; [3],138 µM
same,solubility thermodynamic at 24 h,[2]; [4],298 µM
NS(=O)(=O)NCCSc1nonc1/C(=N/O)Nc1ccc(F)c(Br)c1 [Compound 0117],mean tumor volume compared with the control group during the test,mice colon cancer CT26; 100 mg/kg gavage BID,"always less than that of the control group, but without statistical difference"
same,animals without tumor block when the test was ended,"mice colon cancer CT26; 100 mg/kg gavage BID, 12 animals",one animal on which no tumor block grew
same,Mean Tumor Volume,"mice colon cancer CT26; 100 mg/kg gavage BID, D12",517.3 ± 261.9 mm^3
same,Mean Tumor Volume,"mice colon cancer CT26; 100 mg/kg gavage BID, D14",760.9 ± 335.7 mm^3
same,Mean Tumor Volume,"mice colon cancer CT26; 100 mg/kg gavage BID, D17",1410.5 ± 734.0 mm^3
same,Mean Tumor Volume,"mice colon cancer CT26; 100 mg/kg gavage BID, Day8",130.1 ± 31.1 mm^3
same,Mean Tumor Volume,"mice colon cancer CT26; 100 mg/kg gavage BID, Day10",262.3 ± 131.2 mm^3
same,Inhibitory Rate for Tumor Weight,mice colon cancer CT26; 100 mg/kg gavage BID,14.4%
same,Tumor Weight,mice colon cancer CT26; 100 mg/kg gavage BID,1.71 ± 0.76 g
same,mean tumor weight compared with the control group,mice colon cancer CT26; 100 mg/kg gavage BID,"less than that of the control group, but without statistical difference"
same,IC50,[1],26.2 nM
same,solubility thermodynamic at 24 h,[2]; [3],2620 µM
same,solubility thermodynamic at 24 h,[2]; [4],2610 µM
CC(=O)NCCSc1nonc1/C(=N/O)Nc1ccc(F)c(Br)c1 [Compound 0227],IC50,[1],59.3 nM
NC(=O)NCCSc1nonc1/C(=N/O)Nc1ccc(F)c(Br)c1 [Compound 0231],tumor volume compared with the control group,mice colon cancer CT26; 25 mg/kg (low dose) gavage BID,remarkably less than that of the control group at Day 10 and Day 12
same,Mean Tumor Volume,"mice colon cancer CT26; 25 mg/kg gavage BID, D12",411.7 ± 275.4* mm^3
same,Mean Tumor Volume,"mice colon cancer CT26; 25 mg/kg gavage BID, D14",721.9 ± 575.3 mm^3
same,Mean Tumor Volume,"mice colon cancer CT26; 25 mg/kg gavage BID, D17",1471.2 ± 1269.4 mm^3
same,Mean Tumor Volume,"mice colon cancer CT26; 25 mg/kg gavage BID, Day8",69.5 ± 21.9 mm^3
same,Mean Tumor Volume,"mice colon cancer CT26; 25 mg/kg gavage BID, Day10",229.1 ± 76.7* mm^3
same,Inhibitory Rate for Tumor Weight,mice colon cancer CT26; 25 mg/kg gavage BID,25.9%
same,Tumor Weight,mice colon cancer CT26; 25 mg/kg gavage BID,1.49 ± 1.16 g
same,Mean Tumor Volume,"mice colon cancer CT26; 50 mg/kg gavage BID, D12",436.8 ± 204.9* mm^3
same,Mean Tumor Volume,"mice colon cancer CT26; 50 mg/kg gavage BID, D14",661.5 ± 255.6* mm^3
same,Mean Tumor Volume,"mice colon cancer CT26; 50 mg/kg gavage BID, D17",1242.2 ± 500.9* mm^3
same,Mean Tumor Volume,"mice colon cancer CT26; 50 mg/kg gavage BID, Day8",94.5 ± 52.5 mm^3
same,Mean Tumor Volume,"mice colon cancer CT26; 50 mg/kg gavage BID, Day10",234.6 ± 117.6* mm^3
same,Inhibitory Rate for Tumor Weight,mice colon cancer CT26; 50 mg/kg gavage BID,29.2%
same,Tumor Weight,mice colon cancer CT26; 50 mg/kg gavage BID,1.42 ± 0.56 g
same,Mean Tumor Volume,"mice colon cancer CT26; 100 mg/kg gavage BID, D12",372.4 ± 308.9* mm^3
same,Mean Tumor Volume,"mice colon cancer CT26; 100 mg/kg gavage BID, D14",598.6 ± 442.3* mm^3
same,Mean Tumor Volume,"mice colon cancer CT26; 100 mg/kg gavage BID, D17",1195.4 ± 779.8* mm^3
same,Mean Tumor Volume,"mice colon cancer CT26; 100 mg/kg gavage BID, Day8",97.9 ± 86.9 mm^3
same,Mean Tumor Volume,"mice colon cancer CT26; 100 mg/kg gavage BID, Day10",168.2 ± 145.5* mm^3
same,Inhibitory Rate for Tumor Weight,mice colon cancer CT26; 100 mg/kg gavage BID,34.0%
same,Tumor Weight,mice colon cancer CT26; 100 mg/kg gavage BID,1.32 ± 1.09 g
same,Mean Tumor Volume,"mice colon cancer CT26; 200 mg/kg gavage BID, D12",300.4 ± 231.8* mm^3
same,Mean Tumor Volume,"mice colon cancer CT26; 200 mg/kg gavage BID, D14",512.2 ± 351.8* mm^3
same,Mean Tumor Volume,"mice colon cancer CT26; 200 mg/kg gavage BID, D17",909.7 ± 544.6* mm^3
same,Mean Tumor Volume,"mice colon cancer CT26; 200 mg/kg gavage BID, Day8",74.2 ± 32.2 mm^3
same,Mean Tumor Volume,"mice colon cancer CT26; 200 mg/kg gavage BID, Day10",160.5 ± 114.9* mm^3
same,Inhibitory Rate for Tumor Weight,mice colon cancer CT26; 200 mg/kg gavage BID,56.8%
same,Tumor Weight,mice colon cancer CT26; 200 mg/kg gavage BID,0.87 ± 0.74 g
same,mean tumor weight compared with the control group,mice colon cancer CT26; 200 mg/kg gavage BID,remarkably less than that of the control group
same,mean tumor weight compared with the control group,"mice colon cancer CT26; 25, 50, 100 mg/kg gavage BID","less than that of the control group, but without statistical difference"
same,"tumor inhibitory effect, dose dependence","mice colon cancer CT26; 25, 50, 100, 200 mg/kg gavage BID",dose-dependent manner
same,tumor volume compared with the control group,"mice colon cancer CT26; dose equal to or greater than 50 mg/kg, Day 10 to end of test",always remarkably less than that of the control group
same,tumor inhibitory effect compared at the same dose,mice colon cancer CT26,equivalent tumor inhibitory effect
same,IC50,[1],42.2 nM
same,solubility thermodynamic at 24 h,[2]; [3],155 µM
same,solubility thermodynamic at 24 h,[2]; [4],125 µM
"NS(=O)(=O)NCCNc1nonc1C(=NO)Nc1ccc(F)c(Br)c1 [Compound 360, INCB024360, reference compound]",mean tumor volume compared with the control group during the test,mice colon cancer CT26; 100 mg/kg gavage BID,"always less than that of the control group, but without statistical difference"
same,Mean Tumor Volume,"mice colon cancer CT26; 100 mg/kg gavage BID, D12",512.0 ± 240.2 mm^3
same,Mean Tumor Volume,"mice colon cancer CT26; 100 mg/kg gavage BID, D14",949.2 ± 773.3 mm^3
same,Mean Tumor Volume,"mice colon cancer CT26; 100 mg/kg gavage BID, D17",1531.0 ± 606.0 mm^3
same,Mean Tumor Volume,"mice colon cancer CT26; 100 mg/kg gavage BID, Day8",95.2 ± 36.6 mm^3
same,Mean Tumor Volume,"mice colon cancer CT26; 100 mg/kg gavage BID, Day10",303.5 ± 233.3 mm^3
same,Inhibitory Rate for Tumor Weight,mice colon cancer CT26; 100 mg/kg gavage BID,29.5%
same,Tumor Weight,mice colon cancer CT26; 100 mg/kg gavage BID,1.41 ± 0.81 g
same,mean tumor weight compared with the control group,mice colon cancer CT26; 100 mg/kg gavage BID,"less than that of the control group, but without statistical difference"
same,tumor inhibitory rate for CT26,"mice colon cancer CT26; preliminary experimental research, gavage 100 mg/kg bid",30-50%
same,tumor inhibitory effect compared at the same dose,mice colon cancer CT26,equivalent tumor inhibitory effect
same,solubility thermodynamic at 24 h,[2]; [3],65 µM
same,solubility thermodynamic at 24 h,[2]; [4],160 µM
